From patent US20240368156A1, “2-AZABICYCLO[2.2.1]HEPTANE KRAS INHIBITORS” (INCYTE CORPORATION, priority 2023, published 2024) come the findings set out here.

One test concerns the target KRAS G12D (Homo sapiens, UniProt P01116, G12D). As to the kind of experiment: GDP-GTP exchange assay (bodipy-GDP/GppNHp, SOS1), KRAS G12D. In kind it is biochemical. Conditions: 2.5 nM bodipy-loaded KRAS G12D, 4 h pre-incubation, 2 h reaction with GppNHp and SOS1; for certain compounds the most potent isomer is quoted; read-out: KRAS_G12D exchange assay IC50. As to the method: (§1) The inhibitor potency of the exemplified compounds was determined in a fluorescence based guanine nucleotide exchange assay, which measures the exchange of bodipy-GDP (fluorescently labeled GDP) for GppNHp (Non-hydrolyzable GTP analog) to generate the active state of KRAS in the presence of SOS1 (guanine nucleotide exchange factor). Inhibitors were serially diluted in DMSO and a volume of 0.1 μL was transferred to the wells of a black low volume 384-well plate. 5 µL/well volume of bodipy-loaded KRAS G12D diluted to 2.5 nM in assay buffer (25 mM Hepes pH 7.5, 50 mM NaCl, 10 mM MgCl2 and 0.01% Brij-35) was added to the plate and pre-incubated with inhibitor for 4 h at r.t. Appropriate controls (enzyme with no inhibitor or with a G12D inhibitor) were included on the plate. The exchange was initiated by the addition of a 5 μL/well volume containing 1 mM GppNHp and 300 nM SOS1 in assay buffer. The 10 μL/well reaction concentration of the bodipy-loaded KRAS G12D, GppNHp, and SOS1 were 2.5 nM, 500 μM, and 150 nM, respectively. The reaction plates were incubated at r.t. for 2 h, a time estimated for complete GDP-GTP exchange in the absence of inhibitor. For the KRAS G12V mutant, similar guanine nucleotide exchange assays were used with 2.5 nM as final concentration for the bodipy loaded KRAS proteins and 3 h incubation after adding GppNHp-SOS1 mixture. A cyclic peptide described to selectively bind G12D mutant (Sakamoto et al., BBRC 484.3 (2017), 605-611) or internal compounds with confirmed binding were used as positive controls in the assay plates. Fluorescence intensities were measured on a PheraStar plate reader instrument (BMG Labtech) with excitation at 485 nm and emission at 520 nm.
(§2) Either GraphPad prism or Genedata Screener SmartFit was used to analyze the data. The IC50 values were derived by fitting the data to a four parameter logistic equation producing a sigmoidal dose-response curve with a variable Hill coefficient.
(§3) The symbol “†” indicates IC50≤100 nM, “††” indicates IC50>100 nM but ≤1 μM; and “†††” indicates IC50 is >1 μM but ≤5 μM, “††††” indicates IC50 is >5 µM but ≤10 μM. “NA” indicates IC50 not available.

Another test has as its target KRAS G12V (Homo sapiens, UniProt P01116, G12V). The experiment in a line: GDP-GTP exchange assay (bodipy-GDP/GppNHp, SOS1), KRAS G12V. In kind it is biochemical. To be noted: 2.5 nM bodipy-loaded KRAS G12V, 3 h incubation after adding GppNHp-SOS1; for certain compounds the most potent isomer is quoted; read-out: KRAS_G12V exchange assay IC50. As to the method: as §1, §2, §3

KRAS G12D, sequence (P01116 1-188 isoform P01116-2 G12D): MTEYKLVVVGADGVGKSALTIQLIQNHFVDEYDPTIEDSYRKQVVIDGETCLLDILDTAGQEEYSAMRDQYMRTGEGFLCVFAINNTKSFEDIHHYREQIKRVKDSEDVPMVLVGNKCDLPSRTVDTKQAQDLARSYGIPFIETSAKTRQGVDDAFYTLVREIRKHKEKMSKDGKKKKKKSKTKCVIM
KRAS G12V, sequence (P01116 1-188 isoform P01116-2 G12V): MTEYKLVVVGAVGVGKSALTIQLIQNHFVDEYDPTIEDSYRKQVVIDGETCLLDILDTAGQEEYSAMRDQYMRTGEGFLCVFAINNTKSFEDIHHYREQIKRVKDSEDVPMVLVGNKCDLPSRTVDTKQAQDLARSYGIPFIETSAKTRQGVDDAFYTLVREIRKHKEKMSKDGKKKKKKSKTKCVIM

`CNC(=O)c1ccc(-c2nc3c(F)c(-c4cccc(Cl)c4Cl)c(CCC#N)cc3c3c2cc([C@H]2[C@@H]4CC[C@@H](C4)N2C(=O)C2CC2)n3[C@H]2[C@H]3CN[C@@H]2C3)cc1F` [Example 14, 4-(1-((1R,4R,5S)-2-azabicyclo[2.1.1]hexan-5-yl)-8-(2-cyanoethyl)-2-((1S,3R,4R)-2-(cyclopropanecarbonyl)-2-azabicyclo[2.2.1]heptan-3-yl)-7-(2,3-dichlorophenyl)-6-fluoro-1H-pyrrolo[3,2-c]quinolin-4-yl)-2-fluoro-N-methylbenzamide]: the IC50 at KRAS G12D and at KRAS G12V was at most 100 nM each time. As for `Cc1nc2c(F)c(-c3cccc(Cl)c3Cl)c(CCC#N)cc2c2c1cc([C@H]1[C@H]3C[C@H](C[C@H]3O)N1C(=O)C1CC1)n2C1[C@H]2CN[C@@H]1C2` (stereo partly drawn) [Example 21, 3-(1-((1R,4R)-2-azabicyclo[2.1.1]hexan-5-yl)-2-((1R,3R,4R,5R)-2-(cyclopropanecarbonyl)-5-hydroxy-2-azabicyclo[2.2.1]heptan-3-yl)-7-(2,3-dichlorophenyl)-6-fluoro-4-methyl-1H-pyrrolo[3,2-c]quinolin-8-yl)propanenitrile], the half-maximal inhibitory concentration (IC50) at KRAS G12D and on KRAS G12V was 100 to 1000 nM each time.

Turning to `COC(=O)N1[C@@H]2C[C@@H]([C@@H](OC(F)(F)F)C2)[C@@H]1c1cc2c(C)nc3c(F)c(-c4cccc(Cl)c4Cl)c(CCC#N)cc3c2n1[C@H]1[C@H]2CN[C@@H]1C2` (atropisomer, axis not shown; (Ra)) [Example 40, Methyl (1R,3R,4R,5S)-3-((Ra)-1-((1R,4R,5S)-2-azabicyclo[2.1.1]hexan-5-yl)-8-(2-cyanoethyl)-7-(2,3-dichlorophenyl)-6-fluoro-4-methyl-1H-pyrrolo[3,2-c]quinolin-2-yl)-5-(trifluoromethoxy)-2-azabicyclo[2.2.1]heptane-2-carboxylate], the half-maximal inhibitory concentration (IC50) at KRAS G12D and at KRAS G12V was at most 100 nM in each case.

With `C[C@@H](O)c1nc2c(F)c(-c3cccc(Cl)c3Cl)c(CCC#N)cc2c2c1cc([C@H]1[C@H]3C[C@H](C[C@@H]3F)N1C(=O)C1(F)CC1)n2[C@H]1[C@H]2CN[C@@H]1C2` (single isomer, unassigned) [Example 8], the IC50 on KRAS G12D and on KRAS G12V was at most 100 nM in each case.

As to `[2H]C([2H])([2H])O[C@H]1C[C@H]2C[C@@H]1[C@H](c1cc3c(C)nc4c(F)c(-c5cccc(Cl)c5Cl)c(CCC#N)cc4c3n1C1[C@H]3CN[C@@H]1C3)N2C(=O)C1CC1` (stereo partly drawn) [Example 23, 3-(1-((1R,4R)-2-azabicyclo[2.1.1]hexan-5-yl)-2-((1R,3R,4R,5S)-2-(cyclopropanecarbonyl)-5-(methoxy-d3)-2-azabicyclo[2.2.1]heptan-3-yl)-7-(2,3-dichlorophenyl)-6-fluoro-4-methyl-1H-pyrrolo[3,2-c]quinolin-8-yl)propanenitrile], the half-inhibitory concentration (IC50) on KRAS G12D and at KRAS G12V was at most 100 nM each time.

Take `Cc1nc2c(F)c(-c3cccc(Cl)c3Cl)c(CCC#N)cc2c2c1cc([C@H]1[C@H]3C[C@H](C[C@@H]3OCc3ccccc3)N1C(=O)C1CC1)n2C1[C@H]2CN[C@@H]1C2` (stereo partly drawn) [Example 29, 3-(2-((1R,3R,4R,5S)-5-(benzyloxy)-2-(cyclopropanecarbonyl)-2-azabicyclo[2.2.1]heptan-3-yl)-1-((1R,4R)-2-azabicyclo[2.1.1]hexan-5-yl)-7-(2,3-dichlorophenyl)-6-fluoro-4-methyl-1H-pyrrolo[3,2-c]quinolin-8-yl)propanenitrile]: the concentration for half-maximal inhibition (IC50) on KRAS G12D and at KRAS G12V was at most 100 nM in each case. For `C[C@@H](O)c1nc2c(F)c(-c3cccc(Cl)c3Cl)c(CCC#N)cc2c2c1cc([C@H]1[C@H]3C[C@H](C[C@H]3Cl)N1C(=O)C1(F)CC1)n2[C@H]1[C@H]2CN[C@@H]1C2` (atropisomer, axis not shown) [Example 33, 3-((R)-1-((1R,4R,5S)-2-azabicyclo[2.1.1]hexan-5-yl)-2-((1R,3R,4R,5R)-5-chloro-2-(1-fluorocyclopropane-1-carbonyl)-2-azabicyclo[2.2.1]heptan-3-yl)-7-(2,3-dichlorophenyl)-6-fluoro-4-((R)-1-hydroxyethyl)-1H-pyrrolo[3,2-c]quinolin-8-yl)propanenitrile], the IC50 at KRAS G12D and at KRAS G12V was at most 100 nM in each case.

Take `Cc1nc2c(F)c(-c3cccc(Cl)c3Cl)c(CCC#N)cc2c2c1cc([C@H]1[C@H]3C[C@H](C[C@@H]3OCc3ccccc3)N1C(=O)C1CC1)n2[C@H]1[C@H]2CN[C@@H]1C2` (atropisomer, axis not shown; (Ra)) [Example 6, 3-((Ra)-2-((1R,3R,4R,5S)-5-(Benzyloxy)-2-(cyclopropanecarbonyl)-2-azabicyclo[2.2.1]heptan-3-yl)-1-((1R,4R,5S)-2-azabicyclo[2.1.1]hexan-5-yl)-7-(2,3-dichlorophenyl)-6-fluoro-4-methyl-1H-pyrrolo[3,2-c]quinolin-8-yl)propanenitrile]: the IC50 at KRAS G12D and at KRAS G12V was at most 100 nM in each case.

For `Cc1nc2c(F)c(-c3cccc(Cl)c3Cl)c(CCC#N)cc2c2c1cc([C@H]1[C@@H]3C[C@@H]([C@@H]4C[C@@H]43)N1C(=O)C1CC1)n2C1C2CNC1C2` (stereo partly drawn) [Example 26, 3-(1-(2-azabicyclo[2.1.1]hexan-5-yl)-2-((1R,2S,4R,5S,7R)-6-(cyclopropanecarbonyl)-6-azatricyclo[3.2.1.02,4]octan-7-yl)-7-(2,3-dichlorophenyl)-6-fluoro-4-methyl-1H-pyrrolo[3,2-c]quinolin-8-yl)propanenitrile], the half-maximal inhibitory concentration (IC50) at KRAS G12D and on KRAS G12V was 5000 to 10000 nM throughout. Consider `CN(C)C(=O)c1ccc(-c2nc3c(F)c(-c4cccc(Cl)c4Cl)c(CCC#N)cc3c3c2cc([C@H]2[C@@H]4CC[C@@H](C4)N2C(=O)C2CC2)n3[C@H]2[C@H]3CN[C@@H]2C3)cn1` [Example 12, 5-(1-((1R,4R,5S)-2-azabicyclo[2.1.1]hexan-5-yl)-8-(2-cyanoethyl)-2-((1S,3R,4R)-2-(cyclopropanecarbonyl)-2-azabicyclo[2.2.1]heptan-3-yl)-7-(2,3-dichlorophenyl)-6-fluoro-1H-pyrrolo[3,2-c]quinolin-4-yl)-N,N-dimethylpicolinamide], for which the IC50 at KRAS G12D and at KRAS G12V was at most 100 nM each time. In the case of `Cc1nc2c(F)c(-c3cccc(Cl)c3Cl)c(CCC#N)cc2c2c1cc([C@H]1[C@H]3C[C@H](C[C@@H]3O)N1C(=O)C1CC1)n2C1[C@H]2CN[C@@H]1C2` (stereo partly drawn) [Example 16, 3-(1-((1R,4R)-2-azabicyclo[2.1.1]hexan-5-yl)-2-((1R,3R,4R,5S)-2-(cyclopropanecarbonyl)-5-hydroxy-2-azabicyclo[2.2.1]heptan-3-yl)-7-(2,3-dichlorophenyl)-6-fluoro-4-methyl-1H-pyrrolo[3,2-c]quinolin-8-yl)propanenitrile], the half-maximal inhibitory concentration (IC50) on KRAS G12D and at KRAS G12V was at most 100 nM in each case. For `Cc1nc2c(F)c(-c3cccc(Cl)c3Cl)c(CCC#N)cc2c2c1cc([C@H]1[C@H]3C[C@H](C[C@@H]3OC(F)F)N1C(=O)C1(F)CC1)n2[C@H]1[C@H]2CN[C@@H]1C2` [Example 35, 3-(1-((1R,4R,5S)-2-Azabicyclo[2.1.1]hexan-5-yl)-7-(2,3-dichlorophenyl)-2-((1R,3R,4R,5S)-5-(difluoromethoxy)-2-(1-fluorocyclopropane-1-carbonyl)-2-azabicyclo[2.2.1]heptan-3-yl)-6-fluoro-4-methyl-1H-pyrrolo[3,2-c]quinolin-8-yl)propanenitrile], the half-inhibitory concentration (IC50) on KRAS G12D is at most 100 nM. The same measure, in the same setting: next, `CO[C@H]1C[C@H]2C[C@@H]1[C@H](c1cc3c(C)nc4c(F)c(-c5cccc(Cl)c5Cl)c(CCC#N)cc4c3n1[C@H]1[C@H]3CN[C@@H]1C3)N2C(=O)C1CC1` (atropisomer, axis not shown; (Ra)) [Example 1, 3-((Ra)-1-((1R,4R,5S)-2-Azabicyclo[2.1.1]hexan-5-yl)-2-((1R,3R,4R,5S)-2-(cyclopropanecarbonyl)-5-methoxy-2-azabicyclo[2.2.1]heptan-3-yl)-7-(2,3-dichlorophenyl)-6-fluoro-4-methyl-1H-pyrrolo[3,2-c]quinolin-8-yl)propanenitrile]: at most 100 nM.
